Assay results taken from US20240336896A1, “MODIFIED PRODUCER CELLS FOR EXTRACELLULAR VESICLE PRODUCTION” (LONZA SALES AG, priority 2021, published 2024).
Where two headings read alike, the source gives them in different places. One block for each compound: values may come before it.

Experiments:
[1] = system: primary murine polymorphonuclear neutrophils, RAW264.7 monocytic cells, and 4T1 murine mammary cancer cells; conditions: Baek et al., Endocrinology 2021; cited from earlier work
[2] = system: 1919 HiBit reporter cell line; assay: HiBit luciferase reporter assay of EV production, agent supplemented into media; type: cell-based
[3] = system: HiBit reporter cell line; conditions: for Day 4 VCD / Day 4 Viability: 4 day; for D6 VCD / Day 6 Viability: 6 day
[4] = system: HiBit reporter cell line; assay: viability and viable cell density (VCD) of treated producer cells
[5] = system: HEK producer cell line producing IL-12 EVs (exoIL-12); assay: EV yield in total particles, exoIL-12 producer cells; type: cell-based
Experimental: (§1) The cells lines were treated with simvastatin (5 nM and 10 nM) for 10 days prior to EV purification.

[6] = system: HEK producer cell line producing Protein X EVs (PrX); assay: EV yield in total particles, PrX producer cells; type: cell-based
Experimental: as §1

[7] = system: human adipose MSC cells; assay: relative EV yield by AEX UHPLC peak areas of clarified conditioned media; type: cell-based; conditions: 6 nM simvastatin, 4 days, serum free media
Experimental: When cultures reached approximately 50% confluence, the media was removed and replaced with the identical growth media (control) or the growth media supplemented with […] simvastatin (sim treated). The cultures were incubated for an additional 4 days at which point the conditioned media was collected and the cell debris removed by centrifugation. The clarified condition media was then analyzed by anion exchange (AEX) ultra high-performance liquid chromatography (UHPLC), and the relative amount of extracellular vesicles in each sample was estimated by comparing peak areas. Table 11 quantifies the results, showing a 2.6 fold increase in EV production by adipose MSC cells treated with 6 nM simvastatin.

[8] = system: CHO-S cells; assay: EV yield in total particles from CHO cells; type: cell-based, Chinese Hamster
Experimental: Table 10 quantifies the results. A similar 5.6-fold increase relative to untreated controls was also observed in CHO-S cells six days after being treated with 6 nM simvastatin.

Structure (SMILES): C[C@@H](CO)CCC[C@@H](C)[C@H]1CC[C@H]2[C@@H]3CC=C4C[C@@H](O)CC[C@]4(C)[C@H]3CC[C@]12C [27-hydroxycholesterol]
- exosome production [1]: increased exosome production

Structure (SMILES): Cc1nc[nH]c1CN1CCN(C(=O)N[C@@H](CC(C)C)C(=O)O)[C@@H](Cc2ccccc2)C1=O [GGTI-2418]
- effect on exosome production (RLU) ([2]; days 2, 4, 6, and 8): no effect
- effect on cell density (VCD) ([4]; days 2, 4, 6, and 8): no effect

Structure (SMILES): CC(C)c1nc(N(C)S(C)(=O)=O)nc(-c2ccc(F)cc2)c1/C=C/[C@@H](O)C[C@@H](O)CC(=O)O [rosuvastatin]
- EV expression (luminescence/cell) ([2]; 10, 25, 50, 75, 100 nM, four days post induction): dose-dependent increase

Now from value to compound, other results behind:

- Day 4 VCD [3]: 5.14 e6/ml
- Day 4 VCD ([3]; 5 μM): 7.73 e6/ml
- D6 VCD ([3]; 5 μM): 11.97 e6/ml
- D6 VCD ([3]; 10 μM): 5.13 e6/ml
Structure (SMILES): CN(C)C(=O)N[C@H]1CC[C@H](CCN2CCN(c3cccc(Cl)c3Cl)CC2)CC1 [Cariprazine, cariprazine]
- Luciferase relative to control ([2]; 2 μM cariprazine, Day 2): 0.8
- Luciferase relative to control ([2]; 2 μM cariprazine, Day 3): 1.8
- Luciferase relative to control ([2]; 5 μM cariprazine, Day 2): 1
- Luciferase relative to control ([2]; 5 μM cariprazine, Day 3): 2.6
- Luciferase relative to control ([2]; 10 μM cariprazine, Day 2): 0.8
- Luciferase relative to control ([2]; 10 μM cariprazine, Day 3): 2.4
- Day 4 Viability ([3]; 5 μM): 95.6%
- Day 4 Viability ([3]; 10 μM): 89.7%
- Day 6 Viability ([3]; 5 μM): 92.4%
- Day 6 Viability ([3]; 10 μM): 81.0%

- IC50 ([2]; simvastatin supplemented into the media, inhibited quantity not stated): 10 to 20 nM
Structure (SMILES): CCC(C)(C)C(=O)O[C@H]1C[C@@H](C)C=C2C=C[C@H](C)[C@H](CC[C@@H]3C[C@@H](O)CC(=O)O3)[C@H]21 [Simvastatin, simvastatin]
- Relationship to Control ([5]; exoIL-12, 5 nM simvastatin for 10 days): 3.5x^
- Total Particles ([5]; exoIL-12, 5 nM simvastatin for 10 days prior to EV purification): 1.79E+11
- Relationship to Control ([5]; exoIL-12, 10 nM simvastatin for 10 days): 7x
- Total Particles ([5]; exoIL-12, 10 nM simvastatin for 10 days prior to EV purification): 3.50E+11
- Relationship to Control ([6]; 5 nM simvastatin for 10 days): 4x
- Total Particles ([6]; 5 nM simvastatin for 10 days prior to EV purification): 4.5E+11
- FOLD INCREASE PER CELL EV PRODUCTION [7]: 2.6 X
- FOLD INCREASE PER CELL EV PRODUCTION ([7]; listed as Sim): 2.6X
- increase in EV yield relative to untreated controls ([8]; CHO-S cells six days after being treated with 6 nM simvastatin): 5.6 fold
- Relationship to Control ([8]; CHO-S, 10 nM simvastatin): 5.6X
- Total Particles ([8]; CHO-S, 10 nM simvastatin): 2.22E+11
- Luciferase relative to control ([2]; 10 nM simvastatin, Day 2): 2.3
- Luciferase relative to control ([2]; 10 nM simvastatin, Day 3): 4.7
- Luciferase relative to control ([2]; 10 nM simvastatin, Day 6): 9.6
- Luciferase relative to control ([2]; 50 nM simvastatin, Day 2): 5.3
- D6 VCD ([4]; 2 nM simvastatin): 17.00 e6/ml
- Day 4 VCD ([4]; 2 nM simvastatin): 10.41 e6/ml
- Day 4 Viability ([4]; 2 nM simvastatin): 94.9%
- Day 6 Viability ([4]; 2 nM simvastatin): 95.5%
- D6 VCD ([4]; 5 nM simvastatin): 15.5 e6/ml
- Day 4 VCD ([4]; 5 nM simvastatin): 9.16 e6/ml
- Day 4 Viability ([4]; 5 nM simvastatin): 92.7%
- Day 6 Viability ([4]; 5 nM simvastatin): 95.7%
- tolerability of producer cells ([4]; 10 nM dose, batch refeed in shake flask, duration of the study): well tolerated
- D6 VCD ([4]; 10 nM simvastatin): 12.41 e6/ml
- Day 4 VCD ([4]; 10 nM simvastatin): 8.66 e6/ml
- Day 4 Viability ([4]; 10 nM simvastatin): 88.8%
- Day 6 Viability ([4]; 10 nM simvastatin): 93.6%
- viable cell density (VCD) ([4]; simvastatin alone in HiBit cultures, Example 7): characteristic decrease

- impact on cell culture VCD [3]: no impact
Structure (SMILES): CC(C)CCC[C@@H](C)[C@H]1CC[C@H]2[C@@H]3CC=C4C[C@@H](O)CC[C@]4(C)[C@H]3CC[C@]12C [synthetic cholesterol, cholesterol]
- impact on exosome production ([2]; elevated cholesterol alone): no impact
- simvastatin induction of EV production ([2]; supplemental cholesterol together with simvastatin, still higher than control cultures lacking statin): largely attenuated
